The record followed here is PMC7134596 (Febs Letters, 2004).

The target in the test is SARS‐CoV M^pro (Severe acute respiratory syndrome-related coronavirus, UniProt P0C6X7). Nature of the test: biochemical.

SMILES strings stand for the structures.

Regarding `CC1=C(C(=O)OCCc2ccccc2)C(c2ccccc2[N+](=O)[O-])C2=C(CCCC2=O)N1` (stereo not shown) [MP576, 3‐quinolinecarboxylic acid, 1,4,5,6,7,8‐hexahydro‐2‐methyl‐4‐(2‐nitrophenyl)‐5‐oxo‐, 2‐phenylethyl ester], affinity was put at a Ki of 2900 ± 300 nM.
